What was measured:
[1] = system: Influenza strain A549 A/WSN/33 (H1N1); assay: microbe, parasite or virus in culture; type: cell-based; details: Influenza A virus, A549, 20 h, A549 cells, influenza A/WSN/33 (H1N1), 20 hours incubation; read-out: A549_A(H1N1) EC50
in vitro = details: human, CC50, uninfected A549 cells, CellTiter-Glo

SMILES	EC50 [1]	CC50 (in vitro)
O=C1c2c(O)c(=O)ccn2N2CN1C/C=C/COc1cc(F)c(F)c3c1[C@@H]2c1ccccc1SC3 (single isomer, unassigned) [Compound 140A, (17a*R,*E)-24,25-difluoro-12-hydroxy-2,6,9,17a-tetrahydro-3,4-(epiprop[1]en[1]yl[3]ylidene)-10,17-methanobenzo[6,7]thiepino[4,5-c]pyrido[1,2-f][1]oxa[5,6,9]triazacyclotridecine-11,13-dione]	96.3 nM	9960 nM
O=C1c2c(O)c(=O)ccn2N2CN1C/C=C/CCc1cc(F)ccc1[C@@H]2c1ccccn1 (single isomer, unassigned) [Compound 57A, (16*R,E)-13-fluoro-4-hydroxy-16-(pyridin-2-yl)-7,10,11,16-tetrahydro-6,17-methanobenzo[k]pyrido[1,2-b][1,2,5]triazacyclotridecine-3,5-dione]	32 nM	> 2000 nM
O=C1c2c(O)c(=O)ccn2N2CN1C/C=C\COc1cc(F)c(F)cc1[C@@H]2c1ccccn1 (single isomer, unassigned) [Compound 70A, (18*R,*Z)-2,3-difluoro-12-hydroxy-18-(pyridin-2-yl)-6,9-dihydro-18H-10,17-methanobenzo[b]pyrido[1,2-f][1]oxa[5,6,9]triazacyclotridecine-11,13-dione]	> 10000 nM	> 20000 nM
O=C1c2c(O)c(=O)ccn2N2CN1C1(/C=C/COc3c(Cl)cccc3[C@@H]2c2ccccc2)CC1 (single isomer, unassigned) [Compound 96B]	> 500 nM	> 1000 nM
O=C1c2c(O)c(=O)ccn2N2CN1CCCCCc1ncccc1[C@@H]2c1ccccc1 (single isomer, unassigned) [Compound 23B, (18*S)-12-hydroxy-18-phenyl-5,6,7,8,9,18-hexahydro-10,17-methanodipyrido[1,2-b:2′,3′-k][1,2,5]triazacyclotridecine-11,13-dione]	12200 nM	> 1000 nM
CC[C@H]1C/C=C/COc2c(F)cccc2[C@@H](c2ccccc2)N2CN1C(=O)c1c(O)c(=O)ccn12 (single isomer, unassigned) [Compound 105AA, (2*R,9*S,*E)-9-ethyl-33-fluoro-15-hydroxy-2-phenyl-12,13,14,16-tetrahydro-11H-4-oxa-1(1,3)-pyrido[2,1-f][1,2,4]triazina-3(1,2)-benzenacyclononaphan-6-ene-14,16-dione]	2.2 nM	> 200 nM
O=C1c2c(O)c(=O)ccn2N2CN1C[C@@H]1C[C@@H]1COc1cccc3c1[C@H]2c1ccccc1SC3 (single isomer, unassigned) [Compound 118AB, (1a*S,11b*S,20a*R)-17-hydroxy-1a,2,6,11b,17,17a,20,20a-octahydro-1H-5,4-(epiprop[1]en[1]yl[3]ylidene)-12,19-methanobenzo[6,7]thiepino[4,5-c]cyclopropa[k]pyrido[1,2-f][1]oxa[5,6,9]triazacyclotridecine-16,18-dione]	10 nM	> 200 nM
O=C1c2c(O)c(=O)ccn2N2CN1C1(/C=C\COc3cc(F)c(F)c4c3[C@@H]2c2ccccc2SC4)CC1 (single isomer, unassigned) [Compound 108C]	> 100 nM	> 200 nM
O=C1c2c(O)c(=O)ccn2N2CN1CC/C=C\COc1ccc(F)c3c1[C@@H]2c1ccccc1SC3 (single isomer, unassigned) [Compound 93A, (1*R,13Z)-20-fluoro-7-hydroxy-16-oxa-23-thia-2,3,10-triazahexacyclo[15.12.1.12,10.03,8.021,30.024,29]hentriaconta-4,7,13,17,19,21(30),24(29),25,27-nonaene-6]	> 500 nM	> 1000 nM
O=C1c2c(O)c(=O)ccn2N2CN1C/C=C\COc1c(ccc(Cl)c1Cl)[C@H]2c1ccccc1 (single isomer, unassigned) [Compound 103A, (18*R,Z)-3,4-dichloro-12-hydroxy-18-phenyl-6,9-dihydro-18H-10,17-methanobenzo[b]pyrido[1,2-f][1]oxa[5,6,9]triazacyclotridecine-11,13-dione]	> 100 nM	> 200 nM

From patent US11312727B1, “Macrocyclic flu endonuclease inhibitors” (Janssen BioPharma, Inc., priority 2018, dated 2022)
